Columns and labels:
[1] = molecular target: T1, FXR ligand binding domain (Homo sapiens, UniProt Q96RI1); assay: Mammalian One Hybrid (M1H) assay, Gal4 promoter driven transactivation in HEK293 cells; type: cell-based; conditions: Gal4-FXR-LBD luciferase reporter, 16 h
T1 construct: expressed in transfected cells; host or cells: HEK293 cells, transiently transfected with pCMV-BD-FXR-LBD, pFR-Luc and pRL-CMV
T1 sequence (Q96RI1 187-472 isoform Q96RI1-2): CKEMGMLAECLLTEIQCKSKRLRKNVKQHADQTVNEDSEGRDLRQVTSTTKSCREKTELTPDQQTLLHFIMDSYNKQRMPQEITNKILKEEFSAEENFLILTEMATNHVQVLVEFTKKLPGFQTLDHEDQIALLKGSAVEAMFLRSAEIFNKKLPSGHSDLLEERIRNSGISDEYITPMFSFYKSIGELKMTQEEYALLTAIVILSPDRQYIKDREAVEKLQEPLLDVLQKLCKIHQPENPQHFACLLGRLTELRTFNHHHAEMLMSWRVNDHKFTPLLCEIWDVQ
Summary of the method: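 HEK293 cells were transiently co-transfected with Gal4-DBD fused to the human FXR LBD (aa 187-472, NM_005123), a 5×GAL4-site firefly luciferase reporter and CMV-Renilla control. Compounds were added 2-4 h post-transfection (vehicle ≤0.1%) in charcoal/dextran-stripped FBS medium for 16 h. Firefly and Renilla luciferase were read sequentially, in triplicate.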

[2] = molecular target: T2, human FXR alpha ligand binding domain (Homo sapiens, UniProt Q96RI1); assay: FRET activity assay (ligand mediated cofactor peptide interaction, LANCE); type: biochemical; conditions: GST-FXR-LBD / biotinylated SRC-1 peptide (676-700), read-out: F EC50
T2 construct: made in house; host or cells: E. coli BL21(DE3), vector pDEST15
T2 sequence (Q96RI1 187-472 isoform Q96RI1-2): T1 sequence (Q96RI1 187-472 isoform Q96RI1-2)
Summary of the method: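 GST-tagged FXR LBD (aa 187–472, E. coli-expressed) at 20–60 ng/well with 200–600 nM biotinylated SRC-1 peptide (676–700), streptavidin-APC and Eu anti-GST in Tris pH 7.5 buffer, 1% DMSO, equilibrated 1 h dark at room temperature. TR-FRET read as 665/615 nm ratio; agonists raise signal above basal.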

Row | EC50 [1] [nM] | EC50 [2] [nM] | SMILES
1 | 17 | 9.7 | O=C(O)c1cc(F)c2nc([C@]3(O)[C@@H]4CC[C@H]3C[C@H](OCc3c(-c5ccccc5OC(F)F)noc3C3CC3)C4)sc2c1 [Example 11-28, 2-((1R,3s,5S,8r)-3-((5-Cyclopropyl-3-(2-(difluoromethoxy)phenyl)isoxazol-4-yl)methoxy)-8-hydroxybicyclo[3.2.1]octan-8-yl)-4-fluorobenzo[d]thiazole-6-carboxylic acid]
2 | 5.8 | 4.3 | O=C(O)c1cc(F)c2nc([C@]3(O)[C@@H]4CC[C@H]3C[C@H](OCc3c(-c5c(Cl)cncc5Cl)noc3C3CC3)C4)sc2c1 [Example 11-29, 2-((1R,3s,5S,8r)-3-((5-cyclopropyl-3-(3,5-dichloropyridin-4-yl)isoxazol-4-yl)methoxy)-8-hydroxybicyclo[3.2.1]octan-8-yl)-4-fluorobenzo[d]thiazole-6-carboxylic acid]
3 | 67 | 64 | O=C(O)c1ccc2nc([C@]3(O)CC[C@@H](OCc4c(-c5c(Cl)cccc5Cl)noc4C4CC4)CC3)sc2c1 [Example 11-30, 2-((1s,4s)-4-((5-Cyclopropyl-3-(2,6-dichlorophenyl)isoxazol-4-yl)methoxy)-1-hydroxycyclohexyl)benzo[d]thiazole-6-carboxylic acid]
4 | 130 | 50 | O=C(O)c1cc(F)c2nc([C@]3(O)CC[C@@H](OCc4c(-c5c(Cl)cccc5Cl)noc4C4CC4)CC3)sc2c1 [Example 11-31, 2-((1s,4s)-4-((5-cyclopropyl-3-(2,6-dichlorophenyl)isoxazol-4-yl)methoxy)-1-hydroxycyclohexyl)-4-fluorobenzo[d]thiazole-6-carboxylic acid]
5 | 380 | 55 | O=C(O)c1cc(F)c2nc([C@]3(O)CC[C@@H](OCc4c(-c5c(Cl)cncc5Cl)noc4C4CC4)CC3)sc2c1 [Example 11-34, 2-((1s,4s)-4-((5-Cyclopropyl-3-(3,5-dichloropyridin-4-yl)isoxazol-4-yl)methoxy)-1-hydroxycyclohexyl)-4-fluorobenzo[d]thiazole-6-carboxylic acid]
6 | 5.2 | 9.6 | O=C(O)c1ccc2nc([C@@]3(O)[C@@H]4CC5C[C@H]3C[C@](OCc3c(-c6c(Cl)cccc6Cl)noc3C3CC3)(C5)C4)sc2c1 [Example 11-35, 2-((1R,2r,3S,5s,7s)-5-((5-Cyclopropyl-3-(2,6-dichlorophenyl)isoxazol-4-yl)methoxy)-2-hydroxyadamantan-2-yl)benzo[d]thiazole-6-carboxylic acid]
7 | 930 | 1100 | O=C(O)c1ccc2nc([C@]3(O)[C@@H]4CC5C[C@H]3C[C@](OCc3c(-c6c(Cl)cccc6Cl)noc3C3CC3)(C5)C4)sc2c1 [Example 11-36, 2-((1R,2s,3S,5s,7s)-5-((5-Cyclopropyl-3-(2,6-dichlorophenyl)isoxazol-4-yl)methoxy)-2-hydroxyadamantan-2-yl)benzo[d]thiazole-6-carboxylic acid]
8 | 43 | 8.8 | Cc1onc(-c2c(Cl)cccc2Cl)c1CO[C@@H]1C[C@H]2CC[C@@H](C1)[C@]2(O)c1nc2ccc(C(=O)O)cc2s1 [Example 11-37, 2-((1R,3s,5S,8r)-3-((3-(2,6-Dichlorophenyl)-5-methylisoxazol-4-yl)methoxy)-8-hydroxybicyclo[3.2.1]octan-8-yl)benzo[d]thiazole-6-carboxylic acid]
9 | 460 | 270 | Cc1onc(-c2c(Cl)cccc2Cl)c1CO[C@H]1C[C@H]2CC[C@@H](C1)[C@]2(O)c1nc2ccc(C(=O)O)cc2s1 [Example 11-38, 2-((1R,3r,5S,8r)-3-((3-(2,6-Dichlorophenyl)-5-methylisoxazol-4-yl)methoxy)-8-hydroxybicyclo[3.2.1]octan-8-yl)benzo[d]thiazole-6-carboxylic acid]
10 | 36 | 20 | Cn1cc(C(=O)O)c2ccc([C@]3(O)CC[C@@H](OCc4c(-c5c(Cl)cccc5Cl)noc4C4CC4)CC3)cc21 [Example 11-42, 6-((1s,4s)-4-((5-Cyclopropyl-3-(2,6-dichlorophenyl)isoxazol-4-yl)methoxy)-1-hydroxycyclohexyl)-1-methyl-1H-indole-3-carboxylic acid]
11 | 1800 | 16 | O=C(O)c1cnc2cc([C@]3(O)CC[C@@H](OCc4c(-c5c(Cl)cccc5Cl)noc4C4CC4)CC3)ccc2c1 [Example 11-43, 7-((1s,4s)-4-((5-Cyclopropyl-3-(2,6-dichlorophenyl)isoxazol-4-yl)methoxy)-1-hydroxycyclohexyl)quinoline-3-carboxylic acid]
12 | 120 | 49 | O=C(O)c1cccc2nc([C@]3(O)CC[C@@H](OCc4c(-c5c(Cl)cccc5Cl)noc4C4CC4)CC3)ccc12 [Example 11-44, 2-((1s,4s)-4-((5-Cyclopropyl-3-(2,6-dichlorophenyl)isoxazol-4-yl)methoxy)-1-hydroxycyclohexyl)quinoline-5-carboxylic acid]
13 | 140 | 7 | CC(C)n1nc(C(=O)O)c2ccc([C@]3(O)CC[C@@H](OCc4c(-c5c(Cl)cccc5Cl)noc4C4CC4)CC3)cc21 [Example 11-45, 6-((1s,4s)-4-((5-Cyclopropyl-3-(2,6-dichlorophenyl)isoxazol-4-yl)methoxy)-1-hydroxycyclohexyl)-1-isopropyl-1H-indazole-3-carboxylic acid]
14 | 180 | 44 | O=C(O)c1cc(F)c2nc(C3(O)C[C@H]4CC(OCc5c(-c6c(Cl)cccc6Cl)noc5C5CC5)C[C@H]4C3)sc2c1 (stereo partly drawn) [Example 11-46, 2-((3aR,6aS)-5-((5-Cyclopropyl-3-(2,6-dichlorophenyl)isoxazol-4-yl)methoxy)-2-hydroxyoctahydropentalen-2-yl)-4-fluorobenzo[d]thiazole-6-carboxylic acid]
15 | 99 | 12 | O=C(O)c1ccc(C2(O)C[C@H]3CC(OCc4c(-c5c(Cl)cccc5Cl)noc4C4CC4)C[C@H]3C2)c(F)c1 (stereo partly drawn) [Example 11-47, 4-((3aR,6aS)-5-((5-Cyclopropyl-3-(2,6-dichlorophenyl)isoxazol-4-yl)methoxy)-2-hydroxyoctahydropentalen-2-yl)-3-fluorobenzoic acid]
16 | 93 | 28 | O=C(O)c1cc(F)c2nc([C@]3(O)CC4CC3CC4OCc3c(-c4c(Cl)cccc4Cl)noc3C3CC3)sc2c1 (stereo partly drawn) [Example 11-49, 2-((1R,2S,4R)-5-((5-Cyclopropyl-3-(2,6-dichlorophenyl)isoxazol-4-yl)methoxy)-2-hydroxybicyclo[2.2.1]heptan-2-yl)-4-fluorobenzo[d]thiazole-6-carboxylic acid]
17 | 6.4 | 82 | Cc1cccc(C)c1OCc1noc(C2CC2)c1CO[C@@H]1C[C@H]2CC[C@@H](C1)[C@]2(O)c1nc2c(F)cc(C(=O)O)cc2s1 [Example 11-50, 2-((1R,3s,5S,8r)-3-((5-Cyclopropyl-3-((2,6-dimethylphenoxy)methyl)isoxazol-4-yl)methoxy)-8-hydroxybicyclo[3.2.1]octan-8-yl)-4-fluorobenzo[d]thiazole-6-carboxylic acid]
18 | 0.62 | 3.7 | CC(C)c1onc(-c2c(Cl)cccc2Cl)c1CO[C@@H]1C[C@H]2CC[C@@H](C1)[C@]2(O)c1nc2c(F)cc(C(=O)O)cc2s1 [Example 11-51, 2-((1R,3s,5S,8r)-3-((3-(2,6-Dichlorophenyl)-5-isopropylisoxazol-4-yl)methoxy)-8-hydroxybicyclo[3.2.1]octan-8-yl)-4-fluorobenzo[d]thiazole-6-carboxylic acid]
19 | 1.9 | 4.9 | CC(C)(F)c1onc(-c2c(Cl)cccc2Cl)c1CO[C@@H]1C[C@H]2CC[C@@H](C1)[C@]2(O)c1nc2c(F)cc(C(=O)O)cc2s1 [Example 11-52, 2-((1R,3s,5S,8r)-3-((3-(2,6-Dichlorophenyl)-5-(2-fluoropropan-2-yl)isoxazol-4-yl)methoxy)-8-hydroxybicyclo[3.2.1]octan-8-yl)-4-fluorobenzo[d]thiazole-6-carboxylic acid]
20 | 391 | 235 | CC(C)(Cc1cccc([C@]2(O)[C@@H]3CC[C@H]2C[C@H](OCc2c(-c4c(Cl)cccc4Cl)noc2C2CC2)C3)c1)C(=O)O [Example 11-53, 3-(3-((1R,3s,5S,8r)-3-((5-Cyclopropyl-3-(2,6-dichlorophenyl)isoxazol-4-yl)methoxy)-8-hydroxybicyclo[3.2.1]octan-8-yl)phenyl)-2,2-dimethylpropanoic acid]
21 | 290 | 23 | CC(C)(O)c1onc(-c2c(Cl)cccc2Cl)c1CO[C@@H]1C[C@H]2CC[C@@H](C1)[C@]2(O)c1nc2c(F)cc(C(=O)O)cc2s1 [Example 11-56, 2-((1R,3s,5S,8r)-3-((3-(2,6-Dichlorophenyl)-5-(2-hydroxypropan-2-yl)isoxazol-4-yl)methoxy)-8-hydroxybicyclo[3.2.1]octan-8-yl)-4-fluorobenzo[d]thiazole-6-carboxylic acid]
